Converted amounts (≈) assume the structure as drawn. Structures can show the parent of a compound that is named as a salt.
Key:
Experiment in all cases: In vitro antibacterial activity, two-fold agar-plate dilution method
Type in all cases: cell-based
Conditions in all cases: HI-agar, 37° C., 20 hours, read-out: minimal inhibitory concentration (MIC)
[1] = system: Staphylococcus aureus 209P JC-1
Experimental: (§1) In vitro antibacterial activity was determined by the two-fold agar-plate dilution method as described below.
(§2) One loopful of an overnight culture of each test strain in Trypticase-soy broth (10^8 viable cells per ml.) was streaked on heart infusion agar (HI-agar) containing graded concentrations of test compounds, and minimal inhibitory concentration (MIC) was expressed in terms of μg/ml. after incubation at 37° C. for 20 hours.

[2] = system: Proteus vulgaris 2
Experimental: as §1, §2

[3] = system: Klebsiella aerogenes 417
Experimental: as §1, §2

[4] = system: Escherichia coli 324
Experimental: as §1, §2

[5] = system: Proteus mirabilis 525
Experimental: as §1, §2

| MIC [1] [µg/mL] | MIC [2] [µg/mL] | MIC [3] [µg/mL] | MIC [4] [µg/mL] | MIC [5] [µg/mL] | SMILES |
| --- | --- | --- | --- | --- | --- |
| 12.5 (≈ 21.4 µM) | 0.39 (≈ 0.668 µM) |  |  |  | CCCON=C(C(=O)NC1C(=O)N2C(C(=O)O)=C(CSc3nnnn3CC(=O)O)CSC12)c1csc(N)n1 (stereo not drawn) [Test Compound (1), 7-[2-n-Propoxyimino-2-(2-amino-1,3-thiazol-4-yl)acetamido]-3-(1-carboxymethyl-1H-tetrazol-5-yl)thiomethyl-3-cephem-4-carboxylic acid (syn isomer)] |
| 12.5 | 0.78 |  |  |  | C=CCON=C(C(=O)NC1C(=O)N2C(C(=O)O)=C(CSc3nnnn3CC(=O)O)CSC12)c1csc(N)n1 (stereo not drawn) [Test Compound (2), 7-[2-Allyloxyimino-2-(2-amino-1,3-thiazol-4-yl)acetamido]-3-(1-carboxymethyl-1H-tetrazol-5-yl)thiomethyl-3-cephem-4-carboxylic acid hydrochloride (syn isomer)] |
| 12.5 (≈ 21.6 µM) | 0.025 (≈ 0.0431 µM) |  |  |  | C#CCON=C(C(=O)NC1C(=O)N2C(C(=O)O)=C(CSc3nnnn3CC(=O)O)CSC12)c1csc(N)n1 (stereo not drawn) [Test Compound (3), 7-[2-(2-Propynyloxyimino)-2-(2-amino-1,3-thiazol-4-yl)acetamido]-3-(1-carboxymethyl-1H-tetrazol-5-yl)thiomethyl-3-cephem-4-carboxylic acid (syn isomer)] |
|  |  | 0.39 (≈ 0.72 µM) | 0.2 (≈ 0.369 µM) | 0.2 (≈ 0.369 µM) | CON=C(C(=O)NC1C(=O)N2C(C(=O)O)=C(CSc3nnnn3CC(=O)O)CSC12)c1csnn1 (stereo not drawn) [Test Compound (4), 7-[2-Methoxyimino-2-(1,2,3-thiadiazol-4-yl)acetamido]-3-(1-carboxymethyl-1H-tetrazol-5-yl)thiomethyl-3-cephem-4-carboxylic acid (syn isomer)] |
